Entries after “also recorded” stand apart in the source; their conditions may differ.
Experiments:
CB1 receptor = system: CB1 receptor; parameters: method as in PMID 29367862; conditions: [35S]GTPγS binding; cited from earlier work
[1] = Self-administration study, phase I metabolites of Cumyl-PINACA in urine (LC-MS/MS); type: in vivo, human; conditions: 0.6 mg Cumyl-PINACA oral
CB1 receptors = system: CB1 receptors; parameters: method as in PMID 28792725; conditions: mouse AtT-20 neuroblastoma cells, membrane potential; cited from earlier work
[2] = Self-administration study, serum concentrations of Cumyl-PINACA (LC-MS/MS); type: in vivo, human; conditions: 0.6 mg oral, one volunteer
Excerpt: For analysis of the serum samples, a routinely used LC–MS/MS screening method, currently covering 94 compounds with at least two ion transitions for each analyte and one ion transition for each internal standard in positive scheduled multiple reaction monitoring (+sMRM) was applied. Briefly, a QTRAP™ 4000 triple quadrupole linear ion trap instrument (Sciex, Darmstadt, Germany) equipped with a TurbolonSpray® interface and coupled to a Shimadzu Prominence HPLC system consisting of two LC-20 AD SP isocratic pumps, SIL 20 AC autosampler, CTO-20A controller (Shimadzu, Duisburg, Germany) and Analyst® software version 1.6.2 were used (Sciex). […] The total flow rate was 0.5 mL/min. The autosampler and the column oven temperatures were set to 10 and 40 °C, respectively. The monitored ion transitions used for Cumyl-PINACA were m/z 350→215 and 350→232.
To investigate the in vivo phase I metabolism of Cumyl-PINACA, one of the authors (75 kg person) ingested 0.6 mg Cumyl-PINACA orally. In addition to blank samples taken prior to ingestion, serum and urine samples were collected repeatedly over periods of 17 and 31 h after ingestion, respectively. All samples were stored at − 20 °C until analysis. In Germany, approval by an ethics committee is not required for scientific self-experiments.
A 1-mL aliquot of a serum sample was spiked with 10 µL of an internal standard solution mixture (25 ng/mL each, ADBICA-d9, AKB48-d9, JWH-007-d9, JWH-015-d7, JWH-018-d11, JWH-073-d9, JWH-081-d9, JWH-122-d9, JWH-200-d5, JWH-210-d9, JWH-250-d5, JWH-398-d9, MAM-2201-d5, PB-22-d9, RCS-4-d9, UR-144-d5, XLR-11-d5). A 0.5-mL volume carbonate buffer (pH 10) and 1.5 mL of extraction mixture 1 (n-hexane/ ethyl acetate, 99:1, v/v) were added. After gentle mixing for 5 min, the sample was centrifuged and 1 mL of the supernatant was transferred to an HPLC vial. Subsequently, 1.5 mL of extraction mixture 2 (n-hexane/ethyl acetate, 80:20, v/v) was added to the residue, and the mixing and centrifugation steps were repeated. A 1-mL volume of the supernatant was added to the same HPLC vial, and after evaporation under a gentle stream of nitrogen at 40 °C and reconstitution in 100 µL of mobile phase (A/B, 80:20, v/v), the sample was analyzed using LC–MS/MS.

CB2 receptors = system: CB2 receptors; parameters: method as in PMID 28792725; conditions: mouse AtT-20 neuroblastoma cells, membrane potential; cited from earlier work
CB1 = biological target: T1, CB1 (Homo sapiens, UniProt P21554); test: cAMP biosensor assay with CB1 as target (DiscoveRx); type: cell-based
T1 construct: purchased DiscoveRx (Fremont, CA, USA)
T1 sequence (P21554 whole entry): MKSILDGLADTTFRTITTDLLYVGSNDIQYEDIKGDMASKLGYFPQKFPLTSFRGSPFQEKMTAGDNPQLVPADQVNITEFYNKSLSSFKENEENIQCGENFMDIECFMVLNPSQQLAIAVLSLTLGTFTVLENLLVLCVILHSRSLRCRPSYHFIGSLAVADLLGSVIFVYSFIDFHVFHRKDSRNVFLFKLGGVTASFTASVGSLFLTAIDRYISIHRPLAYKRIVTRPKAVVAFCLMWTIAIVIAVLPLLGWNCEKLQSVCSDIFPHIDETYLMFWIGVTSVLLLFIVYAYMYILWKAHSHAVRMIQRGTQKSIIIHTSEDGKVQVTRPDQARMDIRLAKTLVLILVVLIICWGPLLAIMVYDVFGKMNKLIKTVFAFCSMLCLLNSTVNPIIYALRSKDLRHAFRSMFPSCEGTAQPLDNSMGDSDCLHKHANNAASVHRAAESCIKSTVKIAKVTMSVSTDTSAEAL
Procedure: Each compound was tested in duplicates; to induce response, 20 µM forskolin was used.

CB2 receptor = system: CB2 receptor; parameters: method as in PMID 29367862; conditions: [35S]GTPγS binding; cited from earlier work

Question: With CCCCCn1nc(C(=O)NC(C)(C)c2ccccc2)c2ccccc21 [Cumyl-PINACA, 1-pentyl-N-(2-phenylpropan-2-yl)-1H-indazole-3-carboxamide] as the compound, how does the “CB1 activity compared to CP-55,940” value (CB1 receptor) read?
Answer: less activities as compared to CP-55,940

Question: And the “detection of parent compound in urine” value [1]?
Answer: not detected in urine

Question: And the “potency of CB1 receptor activation compared to CP-55,940” value (CB1 receptors)?
Answer: greater potency than CP-55,940

Question: And the drug-related symptoms [2]?
Answer: did not experience any drug-related symptoms

Question: What about the “maximum concentration measured in serum” value [2] of the same compound?
Answer: 0.1 ng/mL

Question: And the “period of detection in serum” value [2]?
Answer: about 17 h

Question: What about the Tmax ([2]; human, serum, read-out: time of maximum serum concentration after ingestion) of the same compound?
Answer: 6 h

Question: What about the “potency of CB2 receptor activation compared to CP-55,940” value (CB2 receptors) of the same compound?
Answer: greater potency than CP-55,940

Question: What about the EC50 (CB1) of the same compound?
Answer: 0.06 nM

Question: And the “relative potency among the tested substances” value (CB1)?
Answer: most potent SC among the tested compounds; also recorded: most potent substance in this assay

Question: What about the Curve top (CB1; agonist format, 20 µM forskolin) of the same compound?
Answer: 93.7

Question: And the Emax (CB1; control ligand CP-55,940, read-out: Maximum response (compared to CP-55,940))?
Answer: 92.9%

Question: And the “CB2 activity compared to CP-55,940” value (CB2 receptor)?
Answer: less activities as compared to CP-55,940
